Experimental findings from PubChem BioAssay AID248 (DTP/NCI, 2004) are described below.

Where “and” joins values, the source holds several entries; their conditions need not be identical. Equal entries are not always repeated. Toxic doses and inconclusive results are not listed.

For this experiment, the system named is L1210 leukemia ip in BDF1 mice, survival T/C. As to the kind of experiment: NCI In Vivo Anticancer Drug Screen. Data for tumor model L1210 Leukemia (intraperitoneal) in B6D2F1 (BDF1) mice. The settings on record: endpoint: mean survival time, higher = longer survival. Summed up:
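Transplanted-tumor mice were given test agent; controls received vehicle only. Survival readings from the two groups were divided (treated over control).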

Where [1] appears, read: dose: 100.0 mg/kg/injection, schedule: Q01DX009 (ip), vehicle: Klucel (hydroxypropylcellulose) (HPC).
[2] abbreviates: dose: 100.0 mg/kg/injection, schedule: Q04DX003 (ip), vehicle: Klucel (hydroxypropylcellulose) (HPC).
[3] abbreviates: dose: 200.0 mg/kg/injection, schedule: Q01DX009 (ip), vehicle: Klucel (hydroxypropylcellulose) (HPC).
Where [4] appears, read: dose: 200.0 mg/kg/injection, schedule: Q04DX003 (ip), vehicle: Klucel (hydroxypropylcellulose) (HPC).
The mark [5] stands for this setting: dose: 400.0 mg/kg/injection, schedule: Q01DX009 (ip), vehicle: Klucel (hydroxypropylcellulose) (HPC).
Setting [6] is: dose: 400.0 mg/kg/injection, schedule: Q04DX003 (ip), vehicle: Klucel (hydroxypropylcellulose) (HPC).
Where [7] appears, read: dose: 100.0 mg/kg/injection, schedule: Q01DX009 (ip), vehicle: saline with Tween-80.
[8] abbreviates: dose: 100.0 mg/kg/injection, schedule: Q04DX003 (ip), vehicle: saline.
The mark [9] stands for this setting: dose: 25.0 mg/kg/injection, schedule: Q01DX001 (ip), vehicle: saline with Tween-80.
The mark [10] stands for this setting: dose: 100.0 mg/kg/injection, schedule: Q01DX001 (ip), vehicle: saline with Tween-80.
The mark [11] stands for this setting: dose: 400.0 mg/kg/injection, schedule: Q01DX001 (ip), vehicle: saline with Tween-80.

As to `CNC(=S)NNc1ccccc1`, the T/C reads like this: under setting [1], 110 % of control; under setting [2], 104 % of control; (dose: 100.0 mg/kg/injection, schedule: Q04DX003 (ip), vehicle: gum acacia) 98 % of control; under setting [3], 103 % of control; under setting [4], 104 % of control; (dose: 200.0 mg/kg/injection, schedule: Q04DX003 (ip), vehicle: gum acacia) 96 % of control. Further, the T/C under setting [5] is 103 % of control; the T/C under setting [6] is 103 % of control; the T/C (dose: 400.0 mg/kg/injection, schedule: Q04DX003 (ip), vehicle: gum acacia) was 101 % of control.
For the compound `CCOC(=O)CC(=O)c1ccccc1F`, the T/C was 97 % of control under setting [1]; 102 % of control under setting [2]; 103 % of control under setting [3]; 103 % of control under setting [4]; 93 % of control under setting [5]; 100 % of control under setting [6].
Regarding `C#CC1(N2CCCCC2)CCCCC1`, the T/C (dose: 100.0 mg/kg/injection, schedule: Q04DX002 (ip), vehicle: Klucel (hydroxypropylcellulose) (HPC)) was 102 % of control and the T/C (dose: 200.0 mg/kg/injection, schedule: Q04DX002 (ip), vehicle: Klucel (hydroxypropylcellulose) (HPC)) is 98 % of control.
`Cc1cc2ncn(CO)c2cc1C`: the T/C by setting is: (dose: 100.0 mg/kg/injection, schedule: Q04DX003 (ip), vehicle: saline with Tween-80) 100 % of control; (dose: 200.0 mg/kg/injection, schedule: Q04DX003 (ip), vehicle: saline with Tween-80) 94 % of control; (dose: 400.0 mg/kg/injection, schedule: Q04DX003 (ip), vehicle: saline with Tween-80) 100 % of control.
Consider `NC(=O)C1(Cl)CC2C=CC1C2` (stereo not given), for which the T/C by setting is: (dose: 25.0 mg/kg/injection, schedule: Q01DX009 (ip), vehicle: saline with Tween-80) 90 % of control; (dose: 25.0 mg/kg/injection, schedule: Q04DX003 (ip), vehicle: saline) 100 % of control; (dose: 50.0 mg/kg/injection, schedule: Q01DX009 (ip), vehicle: saline with Tween-80) 95 % of control; (dose: 50.0 mg/kg/injection, schedule: Q04DX003 (ip), vehicle: saline) 99 % of control; under setting [7], 97 % of control; under setting [8], 110 % of control.
On to `COc1ccc(-n2cc3c(=O)nccc-3c3ccccc32)cc1OC`, for which the T/C was 95 % of control (dose: 75.0 mg/kg/injection, schedule: Q01DX001 (ip), vehicle: saline) and 89 % of control (dose: 150.0 mg/kg/injection, schedule: Q01DX001 (ip), vehicle: saline).
Take `C[C@]12CCC(=O)C=C1[C@@H](F)C[C@@H]1[C@@H]2[C@@H](O)C[C@@]2(C)[C@H]1CC[C@]2(O)C(=O)CO`: the T/C runs as follows: (dose: 25.0 mg/kg/injection, schedule: Q01DX015 (ip), vehicle: carboxymethylcellulose (CMC)) 106 % of control; (dose: 50.0 mg/kg/injection, schedule: Q01DX015 (ip), vehicle: carboxymethylcellulose (CMC)) 96 % of control; (dose: 100.0 mg/kg/injection, schedule: Q01DX001 (sc), vehicle: steriod suspending solution) 117 % of control; (dose: 100.0 mg/kg/injection, schedule: Q01DX015 (ip), vehicle: carboxymethylcellulose (CMC)) 110 % of control; (dose: 200.0 mg/kg/injection, schedule: Q01DX001 (sc), vehicle: steriod suspending solution) 89 % of control; (dose: 200.0 mg/kg/injection, schedule: Q01DX015 (ip), vehicle: carboxymethylcellulose (CMC)) 98 % of control. The T/C reads like this: (dose: 400.0 mg/kg/injection, schedule: Q01DX001 (sc), vehicle: steriod suspending solution) 100 % of control; (dose: 400.0 mg/kg/injection, schedule: Q01DX015 (ip), vehicle: carboxymethylcellulose (CMC)) 86 % of control; (dose: 800.0 mg/kg/injection, schedule: Q01DX001 (sc), vehicle: steriod suspending solution) 105 % of control; (dose: 800.0 mg/kg/injection, schedule: Q01DX015 (ip), vehicle: saline) 102 % of control.
Take `Nc1nc(-c2cccc([N+](=O)[O-])c2)nc2[nH]ncc12`: the T/C is 98 % of control (dose: 37.5 mg/kg/injection, schedule: Q01DX001 (ip), vehicle: Klucel (hydroxypropylcellulose) (HPC)); 98 % of control (dose: 75.0 mg/kg/injection, schedule: Q01DX001 (ip), vehicle: Klucel (hydroxypropylcellulose) (HPC)); 96 % of control (dose: 150.0 mg/kg/injection, schedule: Q01DX001 (ip), vehicle: Klucel (hydroxypropylcellulose) (HPC)).
In the case of `O=[N+]([O-])c1ccc(Oc2cccc([N+](=O)[O-])c2)cc1`, the T/C runs as follows: (dose: 222.0 mg/kg/injection, schedule: Q01DX Z (ip), vehicle: methylcellulose (MC)) 90 % of control; (dose: 333.0 mg/kg/injection, schedule: Q01DX Z (ip), vehicle: methylcellulose (MC)) 95 % of control; (dose: 500.0 mg/kg/injection, schedule: Q01DX Z (ip), vehicle: methylcellulose (MC)) 92 % of control.
On to `CC(C)(CSCC(C)(C)C(=O)O)C(=O)O`, for which the T/C was 104 % of control under setting [2], 94 % of control under setting [4] and 91 % of control under setting [6].
In the case of `Cc1cccc(Nc2c3ccccc3nc3ccccc23)c1`, the T/C is 97 % of control under setting [9]; 100 % of control (dose: 50.0 mg/kg/injection, schedule: Q01DX001 (ip), vehicle: saline with Tween-80); 104 % of control under setting [10].
Consider `Cc1ncccc1CO`, for which the T/C runs as follows: (dose: 100.0 mg/kg/injection, schedule: Q04DX002 (ip), vehicle: gum acacia) 104 % of control; (dose: 200.0 mg/kg/injection, schedule: Q04DX002 (ip), vehicle: gum acacia) 90 % of control; (dose: 400.0 mg/kg/injection, schedule: Q04DX002 (ip), vehicle: gum acacia) 87 % of control.
For the compound `CC(=O)OC1C(=O)C(C)(C)CSCC1(C)C` (stereo not given), the T/C under setting [1] is 103 % of control, the T/C under setting [3] is 103 % of control and the T/C under setting [5] was 105 % of control.
Take `CCCCCCCCCCNC(C1=C(O)c2ccccc2C(=O)C1=O)c1ccccc1` (stereo not given): the T/C was 89 % of control under setting [9], 89 % of control under setting [10] and 86 % of control under setting [11].
With `CCCCCCCCC/C(C)=N\N=C(N)N`, the T/C by setting is: (dose: 8.0 mg/kg/injection, schedule: Q01DX Z (oral), vehicle: methylcellulose (MC)) 91 % of control; (dose: 15.0 mg/kg/injection, schedule: Q01DX Z (ip), vehicle: methylcellulose (MC)) 90 % of control; (dose: 15.0 mg/kg/injection, schedule: Q01DX Z (oral), vehicle: methylcellulose (MC)) 87 % of control; (dose: 30.0 mg/kg/injection, schedule: Q01DX Z (oral), vehicle: methylcellulose (MC)) 96 % of control; (dose: 60.0 mg/kg/injection, schedule: Q01DX Z (oral), vehicle: methylcellulose (MC)) 96 % of control; (dose: 120.0 mg/kg/injection, schedule: Q01DX Z (oral), vehicle: methylcellulose (MC)) 101 % of control.
Take `COc1ccc(OC)c(/C=N/NC(=O)CCCCCCCCC(=O)N/N=C/c2cc(OC)ccc2OC)c1`: the T/C is 90 % of control under setting [10]; 101 % of control and 106 % of control under setting [7]; 94 % of control and 108 % of control (dose: 100.0 mg/kg/injection, schedule: Q04DX002 (ip), vehicle: saline with Tween-80); 92 % of control under setting [8]; 92 % of control (dose: 200.0 mg/kg/injection, schedule: Q01DX001 (ip), vehicle: saline with Tween-80); 97 % of control and 90 % of control (dose: 200.0 mg/kg/injection, schedule: Q01DX009 (ip), vehicle: saline with Tween-80). Also, the T/C is 95 % of control and 90 % of control (dose: 200.0 mg/kg/injection, schedule: Q04DX002 (ip), vehicle: saline with Tween-80); 92 % of control (dose: 200.0 mg/kg/injection, schedule: Q04DX003 (ip), vehicle: saline); 87 % of control under setting [11]; 94 % of control (dose: 400.0 mg/kg/injection, schedule: Q01DX009 (ip), vehicle: saline with Tween-80); 86 % of control (dose: 400.0 mg/kg/injection, schedule: Q04DX002 (ip), vehicle: saline with Tween-80); 87 % of control (dose: 400.0 mg/kg/injection, schedule: Q04DX003 (ip), vehicle: saline).
With `O=C(O)Cn1nnc2ccccc21`, the T/C (dose: 50.0 mg/kg/injection, schedule: Q01DX009 (ip), vehicle: saline) was 94 % of control; the T/C (dose: 100.0 mg/kg/injection, schedule: Q01DX009 (ip), vehicle: saline) is 249 % of control; the T/C (dose: 200.0 mg/kg/injection, schedule: Q01DX009 (ip), vehicle: saline) is 94 % of control.
